The results in this text go back to patent publication US7662851B2, “Use of specific cyklolignans” (Axelar AB, priority 2001, dated 2010).

Data set [1] deals with insulin substrate-1 (IRS-1). Nature of the data set: Phosphorylation of IRS-1 in intact FM55 melanoma cells. The settings on record: 0.05 μM, 1 h. It is filed as cell-based. The protocol:
(§1) Cells were cultured to subconfluency in 6-cm plates, and then fresh medium containing 10% FBS and the desired compounds were added for 1 h. The cells were then lyzed and subjected to immunoprecipitation using specific antibodies. Immunoprecipitates were resolved by sodium dodecyl sulphate polyacrylamide gel electrophoresis (SDS-PAGE) and transferred to nitro-cellulose membranes and incubated with anti-phosphotyrosine antibody. Antibodies to actin (in cell extract) or IGF-1R beta subunit were used as loading controls. After detection the films were scanned for quantification.
FM55 melanoma cells were cultured in the same way as described in Experiment 1. When reaching a density of 65,000 cells/cm^2 in the dishes, they were treated for 1 h with 0 (control) and 0.05 μM of picropodophyllin and podophyllotoxin, respectively. The cells were then isolated and subjected to immunoprecipitation of the IGF-1R, fibroblast growth factor receptor (FGFR), platelet-derived growth factor receptor (PDGFR), epidermal growth factor receptor (EGFR), insulin receptor (IR) and insulin substrate-1 (IRS-1) using antibodies to respective molecules. IRS-1 is a substrate of IGF-1R, and therefore its phosphorylation is dependent on phosphorylated IGF-1R. Gelelectrophoresis, Western blotting and quantification of the different signals were performed as described above.

In data set [2] the test system is MCF-7 breast cancer cell line. Nature of the data set: Cell viability (XTT), MCF-7. The class given is cell-based. The settings on record: Homo sapiens, read-out: EC50 for cell viability. The procedure: (§2) Cell proliferation kit II (Roche Inc.) is based on colorimetric change of the yellow tetrazolium salt XTT in orange formazan dye by the respiratory chain of viable cells (Roehm, N W, et al., J Immunol Methods 142:257-265, 1991). Cells seeded at a concentration of 5000/well in 100 μl medium in a 96-well plate were treated with different drugs in the given concentration. After 24 or 48 h the cells were incubated, according to the manufacturer's protocol, with XTT labelling mixture. After 4 h the formazan dye is quantified using a scanning multiwell spectrophotometer with a 495-nm filter. The absorbance is directly correlated with the number of viable cells. The standard absorbance curve was drawn by means of untreated cells seeded at a concentration of from 1000 to 10 000 cells/well with an increasing rate of 1000 cells/well. All standards and experiments were performed in triplicates.
(§3) 12 different types of cell lines were seeded in 96-well plates (medium volume in a well was 100 μl), at a concentration of 10,000 cells/cm^2 in Minimal Essential Medium supplemented with fetal calf serum. When the cells had reached a concentration of 65,000 cells/cm^2, they were treated with different doses of podophyllotoxin and picropodophyllin for 48 h. Cell viability was then assayed (see above). […]

Data set [3] concerns PC-3 prostatic carcinoma cell line. Nature of the data set: Cell viability (XTT), PC-3. The class given is cell-based. The settings on record: Homo sapiens, read-out: EC50 for cell viability. The protocol: as §2, §3
Background: Formazan colour is commonly taken as a measure of viable cells.

The test system of data set [4] is HepG2 hepatoma cell line. Nature of the data set: Cell viability (XTT), HepG2. It is filed as cell-based. The procedure:
as §2, §3

Data set [5] concerns P6 cells (fibroblasts with overexpressed IGF-1R). Nature of the data set: Cell viability (XTT), P6. It is filed as cell-based, murine. The note with it: Mus musculus, Fibroblast, 48 h, read-out: EC50 for cell viability. The protocol:
as §2, §3

Data set [6] in a line: Local toxicity, subcutaneous osmotic pumps in nude mice. Also on record: key to Local toxicity: effects on skin and subcutaneous tissue: 0: no tissue reaction; *: light tissue reaction with hyperemia and mild inflammation; **: moderate tissue reaction with strong inflammation; ***: strong tissue reaction with necrosis and bleedings. The class given is in vivo. The note with it: 7 days; for Local tissue reactions: subcutaneous osmotic pump loaded with 0.25 mg. The protocol: Control mice were treated with the solvent. 3-6 animals were treated in each group.
The first set of experiments was carried out to investigate possible local and systemic toxic effects of podophyllotoxin, deoxypodophyllotoxin and picropodophyllin on nude mice. In the first experiment osmotic pumps loaded with either drug-free solvent, podophyllotoxin (0.25 mg), deoxypodophyllotoxin (0.25 mg) or picropodophyllin (0.25 mg) were implanted subcutaneously in the flank region. The drugs are delivered subcutaneously with a constant flow of 0.6 μl/h over 7 days. The volume of the pumps was 100 μl. After 7 days the mice were killed and the skin and subcutaneous tissue adjacent to the outlet of the pumps were analyzed and scored for tissue reactions by an experienced pathologist. There were 3 mice in each group.

The target in data set [7] is IGF-1R (Homo sapiens, UniProt P08069). Nature of the data set: IGF-1R phosphorylation in various malignant cell types (EC50). It is filed as cell-based. Also on record: endogenous in cells; host or cells: 12 malignant cell lines (e.g. SK-MEL-2, SK-MEL-5, SK-MEL-28). The note with it: 1 h. The protocol: as §1
12 cell lines of different origins were seeded in 6-cm dishes, at a concentration of 10,000 cells/cm^2 in Minimal Essential Medium supplemented with fetal calf serum (FCS). When the cells had reached a concentration of 65,000 cells/cm^2, they were treated with 0, 0.01, 0.025, 0.05, 0.1 or 1.0 uM doses of podophyllotoxin and picropodophyllin for 1 h. The cells were then harvested for assay and quantification of IGF-1R phosphorylation as described above. The EC50 value, the Efficient Concentration 50%, i.e. the concentration needed to reduce the phosphorylation with 50%, for each inhibitor and cell line, is then calculated. The results are based on two different experiments.

The mark [8] stands for this setting: P6 fibroblasts with overexpressed IGF-1R.

Read-outs that look alike come from different tables or passages of the source. Some results are limits rather than exact numbers.

Sequence of IGF-1R (P08069 31-1367): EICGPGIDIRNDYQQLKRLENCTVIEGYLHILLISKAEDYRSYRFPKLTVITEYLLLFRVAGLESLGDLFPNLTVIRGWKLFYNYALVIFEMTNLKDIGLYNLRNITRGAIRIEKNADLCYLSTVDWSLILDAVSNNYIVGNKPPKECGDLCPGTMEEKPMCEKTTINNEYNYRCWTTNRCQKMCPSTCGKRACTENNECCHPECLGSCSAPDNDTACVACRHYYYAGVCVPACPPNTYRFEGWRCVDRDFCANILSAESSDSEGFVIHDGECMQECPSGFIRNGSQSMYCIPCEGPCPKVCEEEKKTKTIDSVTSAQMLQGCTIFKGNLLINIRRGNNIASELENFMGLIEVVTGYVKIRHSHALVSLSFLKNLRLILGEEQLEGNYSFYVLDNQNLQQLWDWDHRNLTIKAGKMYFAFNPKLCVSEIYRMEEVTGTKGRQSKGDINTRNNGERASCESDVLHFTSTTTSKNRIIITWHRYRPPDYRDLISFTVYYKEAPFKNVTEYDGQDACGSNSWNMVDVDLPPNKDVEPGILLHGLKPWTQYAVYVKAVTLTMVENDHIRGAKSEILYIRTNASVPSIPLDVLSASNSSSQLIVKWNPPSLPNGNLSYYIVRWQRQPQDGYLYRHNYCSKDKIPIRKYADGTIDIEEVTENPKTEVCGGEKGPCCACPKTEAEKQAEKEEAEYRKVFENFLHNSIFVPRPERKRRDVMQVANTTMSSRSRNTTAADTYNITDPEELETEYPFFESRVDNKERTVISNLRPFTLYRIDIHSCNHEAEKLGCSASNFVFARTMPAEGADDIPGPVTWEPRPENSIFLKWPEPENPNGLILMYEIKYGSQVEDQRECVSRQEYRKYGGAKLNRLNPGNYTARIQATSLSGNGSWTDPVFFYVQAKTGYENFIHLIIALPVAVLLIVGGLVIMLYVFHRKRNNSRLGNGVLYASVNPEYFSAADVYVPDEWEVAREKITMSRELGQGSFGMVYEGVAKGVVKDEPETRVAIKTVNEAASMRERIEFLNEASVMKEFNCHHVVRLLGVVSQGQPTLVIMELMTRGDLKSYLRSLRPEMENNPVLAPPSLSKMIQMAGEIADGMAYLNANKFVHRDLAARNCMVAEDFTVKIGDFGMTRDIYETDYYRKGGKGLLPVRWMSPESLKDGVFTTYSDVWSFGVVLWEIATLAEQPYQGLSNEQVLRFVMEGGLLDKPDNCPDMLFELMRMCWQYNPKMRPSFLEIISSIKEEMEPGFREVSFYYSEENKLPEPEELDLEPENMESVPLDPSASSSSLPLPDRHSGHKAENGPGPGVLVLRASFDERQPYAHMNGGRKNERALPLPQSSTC

Turning to `COc1cc([C@@H]2c3cc4c(cc3[C@H](O)[C@H]3COC(=O)[C@H]23)OCO4)cc(OC)c1OC` [Podophyllotoxin, podophyllotoxin], the “Level of phosphorylation in intact cells, substrate IRS-1” value in data set [1] was found to be 10 % OD. Moreover, the EC50 was 70 nM in data set [2] (MCF7, 48 h); 60 nM in data set [3] (48 h); greater than 15000 nM in data set [4] (Homo sapiens, HepG2, 48 h, read-out: EC50 for cell viability); 30 nM in data set [5]; 40 nM in data set [7] (BE melanoma); 30 nM in data set [7] (DWB melanoma). In addition, the EC50 in data set [7] (FM55 melanoma) was determined as 40 nM; in data set [7] (MCF-7 breast cancer), 50 nM; in data set [7] (setting [8]) it was 20 nM; in data set [7] (PC-3 prostate cancer), 60 nM; in data set [7] (RD-ES Ewing's sarcoma) it was 30 nM; in data set [7] (SK-MEL-2 melanoma), 40 nM. Moreover, the EC50 in data set [7] (SK-MEL-5 melanoma) and in data set [7] (SK-MEL-28 melanoma) was 30 nM in each case. In addition, the “Local tissue reactions” value in data set [6] was “severe tissue reactions with necrosis, bleeding and inflammation”.
As to `COc1cc([C@@H]2c3cc4c(cc3[C@H](O)[C@H]3COC(=O)[C@@H]23)OCO4)cc(OC)c1OC` [Picropodophyllin, picropodophyllin], in data set [1], the “Level of phosphorylation in intact cells, substrate IRS-1” value is on record as 17 % OD. Moreover, the EC50 in data set [2] (MCF7, MCF-7, 48 h) is 90 nM; in data set [3] (PC-3, 48 h), 90 nM; in data set [4] (Homo sapiens, HepG2, 48 h; read-out: EC50 for cell viability), greater than 15000 nM; in data set [5] (P6 (fibroblasts with overexpressed IGF-1R)) it was 20 nM; in data set [7] (FM55 melanoma), 60 nM; in data set [7] (MCF-7 breast cancer), 40 nM. The EC50 in data set [7] (setting [8]) was determined as 30 nM; in data set [7] (PC-3 prostate cancer) it was 90 nM; in data set [7] (RD-ES Ewing's sarcoma), 50 nM; in data set [7] (SK-MEL-5 melanoma), 40 nM; in data set [7] (SK-MEL-28 melanoma), 40 nM. Moreover, the “Local tissue reactions” value in data set [6] is reported as “no visible reactions”. The “Local toxicity: effects on skin and subcutaneous tissue” value in data set [6] (subcutaneous osmotic pump, 7 mg/kg/d) is on record as 0.

Broadly, the EC50 is the concentration at which the effect is half-maximal.
